Where “and” joins values, the source holds several entries; their conditions need not be identical. Equal values may be shown once. Entries after “also recorded” stand apart in the source; their conditions may differ. Read-outs that look alike come from different tables or passages of the source.
What was measured:
[1] = test system: S.Tm wild-type SL1344, MAR1 and S10801; test: microbe, parasite or virus in culture; type: cell-based, Salmonella enterica serovar Typhimurium; settings: for sensitivity of MDR S.Tm to tetracycline: MAR1 and S10801
Method: Increased expression or function of efflux pumps often contributes to clinical multidrug resistance. Therefore, whether the EPMs re-sensitize two multidrug resistant strains of S.Tm to tetracycline was tested. Tetracycline is an antibiotic exported by AcrAB. The MAR1 strain is derived from wild-type SL1344 was selected by exposure to tetracycline, and has increased expression of the AcrAB efflux pump. S10801 is an MDR strain isolated from the mesenteric lymph node of a septic calf and is resistant to tetracycline, ampicillin, chloramphenicol, nalidixic acid, and triple sulfa. The basis of multi-drug resistance in this strain is unknown.
(§1) Overnight Salmonella cultures were washed 3 times in PBS and diluted to an OD of 0.01 in Mueller Hinton Broth in 96-well flat bottom plates. Compound was added using a pin tool (CyBio) or manually, yielding a final concentration of no more than 1% DMSO. Plates were grown at 37° C. shaking and OD600 was monitored using a BioTek Eon incubator shaker microplate absorbance reader. For experiments in defined media, bacteria were grown in M9 minimal media supplemented with 100 mM Tris pH 7.4, 0.35% glycerol, 0.002% histidine, 10 mM MgCl2, and 0.1% casamino acids. Where indicated, media was supplemented with 5 μg/ml polymyxin B or 0.2 mM H2O2. For experiments with LL-37, bacteria were grown in M9 minimal media supplemented with 0.4% dextrose, 0.004% histidine, 1 mM MgSO4, and 5 μg/ml LL-37. For checkerboard assays, MIC was defined as the concentration at which no growth was visually observed.

[2] = test system: S.Tm infection of C57BL/6 mice; test: Mouse infection with S.Tm, tetracycline and EPM35 treatment
Method: Finally, whether EPM35 increased sensitivity of 510801 and wild-type S.Tm to tetracycline in vivo was tested. 7-week-old C57BL/6 mice were intraperitoneally infected with 1×10^4 bacteria. At 30 minutes and 24 hours post-infection, 25 mg/kg tetracycline and 50 mg/kg EPM35 was injected. […] Thus, the experiment was ended at 30 hours post-infection; the spleen and liver were harvested and plated to determine bacterial CFU.
These studies were carried out in strict accordance with the recommendations in the Guide for the Care and Use of Laboratory Animals of the National Institutes of Health, and all protocols were approved by the University of Colorado Institutional Committees for Biosafety and for Animal Care and Use. Bacteria were grown overnight in LB, then diluted in PBS. Seven week old C57/B16 female mice were intraperitoneally injected with 1×10^4S.Tm in 100 μL. Thirty minutes later, mice received two intraperitoneal injections: 25 mg/kg tetracycline in 150 μL PBS or PBS alone, and 50 mg/kg EPM35 in 100 μL DMSO or DMSO alone. Drug injections were repeated at 24 hours post-infection. At 30 hours post-infection, mice were humanely euthanized using carbon dioxide asphyxiation followed by cervical dislocation. Spleens and livers were harvested, homogenized, diluted in PBS, and plated to enumerate S.Tm CFUs.

S.Tm efflux pumps = test: Hoechst 33342 accumulation assay; type: cell-based, Salmonella enterica serovar Typhimurium
Method: Efflux pumps (EPs) represent a key pathogen virulence strategy to protect against host antimicrobials as well as therapeutic antibiotics. […] To uncover putative EPMs within our collection of hits, 58 repurchased compounds were screened in a Hoechst accumulation assay. Bacteria were incubated with Hoechst 33342, a dye which fluoresces when bound to DNA.
Hoechst accumulation assays were performed essentially as described in the literature. Briefly, overnight Salmonella cultures were washed 3 times in PBS and diluted to an OD of 0.1 in PBS with 2.5 μM Hoechst 33342 in the presence of the indicated concentrations of compounds. Fluorescence was monitored on a Biotek Synergy 2 with a 360/40 nm excitation filter and 460/40 nm emission filter. The maximum Hoechst fluorescence over 60 minutes of incubation was normalized to the signal from the equivalent number of heat-killed bacteria, after subtraction of autofluroescent signal determined from compound incubated in the absence of bacteria. Curve fitting to determine EC50s was performed using GraphPad Prism.

K. pneumoniae = test: Nile Red export in MDR clinical isolate; type: cell-based, Klebsiella pneumoniae; settings: after glucose addition
Description: Six pathogens that cause the bulk of MDR nosocomial infections have been dubbed the ESKAPE pathogens: Enterococcus faecium, Staphylococcus aureus, Klebsiella pneumoniae, Acinetobacter baumannii, Pseudomonas aeruginosa, and Enterobacter species (56).
Referring to FIGS. 22A-22D: Defined strains obtained from BEI resources were examined for Nile Red retention after glucose addition in the presence of the indicated compound. *p<0.05; **p<0.01; ***p<0.001; ****p<0.0001 as determined by comparison to DMSO+glucose with a one-way ANOVA and Dunnett's multiple comparison post-test.
Nile Red assays were adapted from an established protocol. Briefly, overnight Salmonella cultures were grown in Mueller-Hinton cation-adjusted broth (Sigma), washed, and resuspended at an OD600 of 2.0. Cells were incubated in 10 μM Nile Red for 3 hours at 37° C. with aeration, then moved to room temperature for 1 hour. After pelleting at 2000× g, dye-loaded cells were aliquoted and combined with compound at the indicated concentrations. Two hundred microliters was loaded into 96-well black walled plates (Greiner) and read using a Varioskan Flash Multimode Reader with 540 nm excitation and 625 nm emission filters. We observed that during loading into plates (˜20 minutes), bacteria were able to efflux Nile Red even in the absence of glucose (FIG. 8A). […]

[3] = test system: extracellular S.Tm grown in MHB broth; test: Broth activity assay (growth / MIC in Mueller Hinton Broth); type: cell-based, Salmonella enterica serovar Typhimurium; settings: Salmonella enterica, three Salmonella strains SL1344, MAR1, S10801
Method: as §1

HepG2 human liver cells = test: LDH cytotoxicity assay; type: cell-based; settings: 16 hours
Method: Cytoxocity was determined using the Pierce Lactate Dehydrogenase (LDH) Cytoxicity Assay. HepG2 liver cells were plated at 5×10^4 in 96 well tissue culture plates and allowed to settle overnight. Cells were treated with a 2-fold dilutions of each compound for 16 hours. Fifty microliters of conditioned media was mixed with the LDH assay reagent, incubated for 30 minutes, and absorbance was read at 490 and 680 nm. Curve fitting to determine CC50s was performed using GraphPad Prism; the CC50 is defined as 50% of the maximum LDH release as determined by lysed macrophages. There was no spontaneous LDH release or LDH present in the media.

[4] = Log D, solubility and predicted bioavailability; type: physicochemical; settings: aqueous

Compound	decrease of the tetracycline MIC ([1]; 50 μM (⅛ MIC), both strains MAR1 and S10801) [fold]	sensitivity of MDR S.Tm to tetracycline [1]	signs in treated mice ([2]; 50 mg/kg intraperitoneal at 30 minutes and 24 hours post-infection)	bacterial CFU in spleen and liver, co-treatment with tetracycline ([2]; S10801-infected mice, 25 mg/kg tetracycline + 50 mg/kg EPM35)	enhanced decrease of CFU on co-treatment with tetracycline ([2]; mice infected with wild-type bacteria, 25 mg/kg tetracycline + 50 mg/kg EPM35)	Hoechst assay EC50 relative to PAβN (S.Tm efflux pumps)	Hoechst accumulation / fluorescence (S.Tm efflux pumps; wild-type S.Tm, 60 minutes)	Nile Red export (K. pneumoniae)	MIC [3]	toxicity in HepG2 LDH assays (HepG2 human liver cells)	Hoechst accumulation / fluorescence (S.Tm efflux pumps)	solubility [4]
OC(COc1ccc(Cl)c(Cl)c1)CN1CCC(Nc2nccc(C(F)(F)F)n2)CC1 (stereo not drawn) [EPM35]	4	increased sensitivity to tetracycline	Distress was observed	appeared to further reduce bacterial CFU	not observed	lower than that of PAβN	increased S.Tm accumulation of Hoechst in a dose-dependent manner; also recorded: fluorescence comparable to that of PAβN	significantly reduced Nile Red export	400 µM and 186 µg/mL	–	–	–
Cc1ccc(Sc2cccc3nc(N)nc(N)c23)cc1 [EPM43]	–	not	–	–	–	–	–	significantly reduced Nile Red export	> 400 µM and 113 µg/mL	less toxic to HepG2 cells than the other EPMs	increased S.Tm accumulation of Hoechst in a dose-dependent manner; also recorded: fluorescence comparable to that of PAβN	poor aqueous solubility

From patent US11110080B2, “Small molecule inhibitors of bacterial efflux pumps and methods of using same” (The Regents of the University of Colorado, a body Corporate, priority 2017, dated 2021)
